Legend:
Format in all cases: cell-based
[1] = target: T1, 17β-hydroxysteroid dehydrogenase type 2 (17β-HSD type 2) (Homo sapiens, UniProt P37059); assay: Inhibition of 17β-HSD type 2 in MCF-7 cells stably expressing the isoenzyme (tritium labeled estradiol conversion, HPLC); details: MCF7, MCF-7 cells expressing 17β-HSD type 2, 2 nM tritium labeled estradiol; for inhibition at 1 µM: 1 μM test compound, read-out: % Inhibition HSD2 1 μM; for inhibition at 10 µM: 10 μM test compound, read-out: % Inhibition HSD2 10 μM
T1 construct: expressed in transfected cells; host or cells: MCF-7
T1 sequence (P37059 1-387): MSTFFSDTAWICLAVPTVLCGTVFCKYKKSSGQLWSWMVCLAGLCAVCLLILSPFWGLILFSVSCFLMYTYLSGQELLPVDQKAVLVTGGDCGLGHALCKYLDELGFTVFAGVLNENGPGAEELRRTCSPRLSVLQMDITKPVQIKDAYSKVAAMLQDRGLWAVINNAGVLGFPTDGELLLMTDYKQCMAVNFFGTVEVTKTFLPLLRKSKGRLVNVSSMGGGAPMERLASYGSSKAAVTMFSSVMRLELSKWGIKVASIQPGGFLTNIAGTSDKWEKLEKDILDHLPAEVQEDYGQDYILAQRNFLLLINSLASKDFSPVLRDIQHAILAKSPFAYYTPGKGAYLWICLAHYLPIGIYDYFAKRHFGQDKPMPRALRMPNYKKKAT
From the text: (§1) Biological Testing Materials and Methods 1. Inhibition of the 17β-hydroxysteroid dehydrocienase type 1, type 2 and type 3 enzyme
(§2) The compounds were screened in respect of 17β-HSD enzyme activity in vitro on established MCF-7 cell lines, each stably expressing one of the respective 17β-HSD isoenzymes. The interconversion of substrate by each isoenzyme and the 17β-HSD inhibiting activity of chemical compounds in these cell lines were detected by HPLC system.
(§3) Varying amounts of the test compounds were incubated in the growth medium of the 17β-HSD expressing cells together tritium labeled substrate (2 nM estrone for 17β-HSD type 1; 2 nM estradiol for 17β-HSD type 2; and 2 nM androstenedione for 17β-HSD type 3). The medium samples were removed after exact incubation time and the reaction is stopped by trichloroacetic acid (TCA). The samples were analyzed by HPLC-coupled flow scintillation analysis.
(§4) For each enzyme type, the HSD-inhibiting activity of an individual test compound was calculated by comparing the conversion of a control sample without any test compound (referred to as “Negative Control”) to the (reduced) conversion of the test sample containing the particular compound to be tested (referred to as “Test Sample”).
(§5) Two concentrations of each compound were used. The number of the compound refers to the numbers indicated in the Experimental Section.

[2] = target: T2, 17β-hydroxysteroid dehydrogenase type 3 (17β-HSD type 3) (Homo sapiens, UniProt P37058); assay: Inhibition of 17β-HSD type 3 in MCF-7 cells stably expressing the isoenzyme (tritium labeled androstenedione conversion, HPLC); details: MCF7, MCF-7 cells expressing 17β-HSD type 3, 2 nM tritium labeled androstenedione; for inhibition at 1 µM: 1 μM test compound, read-out: % Inhibition HSD3 1 μM; for inhibition at 10 µM: 10 μM test compound, read-out: % Inhibition HSD3 10 μM
T2 construct: expressed in transfected cells; host or cells: MCF-7
T2 sequence (P37058 1-310): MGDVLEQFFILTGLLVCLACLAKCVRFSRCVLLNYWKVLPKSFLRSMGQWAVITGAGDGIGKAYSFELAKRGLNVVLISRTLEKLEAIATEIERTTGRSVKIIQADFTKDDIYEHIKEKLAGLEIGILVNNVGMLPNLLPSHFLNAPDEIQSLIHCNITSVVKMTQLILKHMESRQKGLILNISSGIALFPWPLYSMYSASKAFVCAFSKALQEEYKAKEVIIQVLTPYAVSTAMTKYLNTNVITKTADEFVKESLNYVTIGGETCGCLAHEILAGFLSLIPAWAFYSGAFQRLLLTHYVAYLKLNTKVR
From the text: as §1, §2, §3, §4, §5

[3] = target: T3, 17β-hydroxysteroid dehydrogenase type 1 (17β-HSD type 1) (Homo sapiens, UniProt P14061); assay: Inhibition of 17β-HSD type 1 in MCF-7 cells stably expressing the isoenzyme (tritium labeled estrone conversion, HPLC); details: MCF7, MCF-7 cells expressing 17β-HSD type 1, 2 nM tritium labeled estrone; for inhibition at 1 µM: 1 μM test compound, read-out: % Inhibition HSD1 1 μM; for inhibition at 10 µM: 10 μM test compound, read-out: % Inhibition HSD1 10 μM
T3 construct: expressed in transfected cells; host or cells: MCF-7
T3 sequence (P14061 1-328): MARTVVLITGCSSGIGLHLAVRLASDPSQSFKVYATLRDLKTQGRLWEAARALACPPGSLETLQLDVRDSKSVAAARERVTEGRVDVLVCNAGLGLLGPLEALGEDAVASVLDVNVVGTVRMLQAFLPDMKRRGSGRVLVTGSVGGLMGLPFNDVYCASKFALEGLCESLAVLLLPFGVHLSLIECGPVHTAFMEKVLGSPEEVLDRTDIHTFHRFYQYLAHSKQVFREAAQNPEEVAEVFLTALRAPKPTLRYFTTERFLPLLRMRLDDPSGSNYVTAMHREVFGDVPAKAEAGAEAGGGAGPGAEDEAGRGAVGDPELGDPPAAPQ
From the text: as §1, §2, §3, §4, §5

Row | SMILES | inhibition at 1 µM [1] | inhibition at 10 µM [1] | inhibition at 1 µM [2] | inhibition at 10 µM [2] | inhibition at 1 µM [3] | inhibition at 10 µM [3]
1 | COc1cc(-c2nc3sc4c(c3c(=O)n2Cc2ccccc2)CCC(C=O)=C4Oc2ccccc2)cc(OC)c1OC [No. 4, 3-Benzyl-4-oxo-8-phenoxy-2-(3,4,5-trimethoxyphenyl)-3,4,5,6-tetrahydro-benzo[4,5]thieno[2,3-d]pyrimidine-7-carbaldehyde] | -4.3% | 20.1% | -7.2% | 6.5% | 20.1% | 30.7%
2 | COc1cc(-c2nc3sc4c(Oc5ccccc5)c(C=O)ccc4c3c(=O)n2Cc2ccccc2)cc(OC)c1OC [No. 5, 3-Benzyl-4-oxo-8-phenoxy-2-(3,4,5-trimethoxyphenyl)-3,4-dihydro-benzo[4,5]thieno[2,3-d]pyrimidine-7-carbaldehyde] | -0.9% | 17% | 9.4% | 9.1% | -1% | 26.1%
3 | CCOC1=C(C=O)CCc2c1sc1nc(-c3cc(OC)c(OC)c(OC)c3)n(Cc3ccccc3)c(=O)c21 [No. 7, 3-Benzyl-8-ethoxy-4-oxo-2-(3,4,5-trimethoxyphenyl)-3,4,5,6-tetrahydro-benzo[4,5]thieno[2,3-d]pyrimidine-7-carbaldehyde] | 8.2% | 27% | -17.6% | 5.7% | 12.5% | 38.4%
4 | COc1cc(-c2nc3sc4c(c3c(=O)n2Cc2ccccc2)CCC(C=O)=C4Sc2ccccc2)cc(OC)c1OC [No. 8, 3-Benzyl-4-oxo-8-phenylsulfanyl-2-(3,4,5-trimethoxyphenyl)-3,4,5,6-tetrahydro-benzo[4,5]thieno[2,3-d]pyrimidine-7-carbaldehyde] | 4.9% | 17.1% | 2.5% | 4.8% | 30.8% | 27.4%
5 | COc1cc(-c2nc3sc4c(c3c(=O)n2-c2ccccc2)CCCC4)cc(OC)c1OC [No. 10, 3-Phenyl-2-(3,4,5-trimethoxyphenyl)-5,6,7,8-tetrahydro-3H-benzo[4,5]thieno[2,3-d]pyrimidin-4-one] | 18.1% | 23.7% | -4.4% | 10.9% | 12.7% | 35.1%
6 | COc1cc(-c2nc3sc4c(c3c(=O)n2-c2ccccc2)CCCC4=O)cc(OC)c1OC [No. 11, 3-Phenyl-2-(3,4,5-trimethoxyphenyl)-6,7-dihydro-3H,5H-benzo[4,5]thieno[2,3-d]pyrimidine-4,8-dione] | -5.3% | 12.3% | -5.6% | 12.8% | 14.2% | 27.7%
7 | COc1ccc(-c2nc3sc4c(c3c(=O)n2Cc2ccccc2)CCCC4)cc1 [No. 12, 3-Benzyl-2-(p-methoxyphenyl)-5,6,7,8-tetrahydro-3H-benzo[4,5]thieno[2,3-d]pyrimidin-4-one] | 4.2% | 12.3% | 3.1% | 55.5% | 6.3% | 34.5%

Continued, values first:

Row | inhibition at 1 µM [1] | inhibition at 10 µM [1] | inhibition at 1 µM [2] | inhibition at 10 µM [2] | inhibition at 1 µM [3] | inhibition at 10 µM [3] | SMILES
8 | 32.8% | 48.4% | 21.8% | 25.6% | 28.5% | 23.2% | O=C1c2sc3nc(-c4cccs4)n(Cc4ccccc4)c(=O)c3c2CCC1Br (centres unmarked)
9 | 18.5% | 20.5% | 3.1% | 14.7% | 14.9% | 28.6% | CCCCn1c(-c2cccs2)nc2sc3c(c2c1=O)CCCC3
10 | 7.3% | 17.4% | -8.8% | 6.3% | 0.8% | 21.1% | COc1cc(-c2nc3sc4c(c3c(=O)n2Cc2ccccc2)CCCC4)cc(OC)c1OC [No. 1, 3-benzyl-2-(3,4,5-trimethoxyphenyl)-5,6,7,8-tetrahydro-3H-benzo[4,5]thieno[2,3-d]pyrimidin-4-one]
11 | 1.5% | 33.2% | 11.7% | 40.5% | 17.3% | 58.7% | COc1cc(-c2nc3sc4c(c3c(=O)n2Cc2ccccc2)CCCC4=O)cc(OC)c1OC [No. 2, 3-Benzyl-2-(3,4,5-trimethoxyphenyl)-6,7-dihydro-3H,5H-benzo[4,5]thieno[2,3-d]pyrimidine-4,8-dione]
12 | -3.2% | 7.8% | -19.4% | 29.1% | 3.2% | 38.4% | COc1cc(-c2nc3sc4c(c3c(=O)n2Cc2ccccc2)CCC(C=O)=C4Cl)cc(OC)c1OC [No. 3, 3-Benzyl-8-chloro-4-oxo-2-(3,4,5-trimethoxyphenyl)-3,4,5,6-tetrahydro-benzo[4,5]thieno[2,3-d]pyrimidine-7-carbaldehyde]
13 | 3.8% | 29.7% | 2.1% | 47.1% | 31.8% | 44.2% | CCSC1=C(C=O)CCc2c1sc1nc(-c3cc(OC)c(OC)c(OC)c3)n(Cc3ccccc3)c(=O)c21 [No. 6, 3-Benzyl-8-ethylsulfanyl-4-oxo-2-(3,4,5-trimethoxyphenyl)-3,4,5,6-tetrahydro-benzo[4,5]thieno[2,3-d]pyrimidine-7-carbaldehyde]
14 | -2.6% | -8.9% | 2.7% | 1.4% | 31.9% | 29.9% | COc1cc(-c2nc3sc4c(Sc5ccccc5)c(C=O)ccc4c3c(=O)n2Cc2ccccc2)cc(OC)c1OC [No. 9, 3-Benzyl-4-oxo-8-phenylsulfanyl-2-(3,4,5-trimethoxyphenyl)-3,4-dihydro-benzo[4,5]thieno[2,3-d]pyrimidine-7-carbaldehyde]
15 | 16.6% | 30.7% |  |  | 9.9% | 9.1% | COc1cc(-c2nc3sc4ccccc4c3c(=O)n2Cc2ccccc2)c(Br)c(OC)c1OC [No. 51, 3-benzyl-2-(2-bromo-3,4,5-trimethoxyphenyl)-3H-benzo[4,5]thieno[2,3-d]pyrimidin-4-one]
16 | 14.6% | 22.1% |  |  | 21.2% | 52.7% | COc1cc(-c2nc3sc4c(O)cccc4c3c(=O)n2CC(C)C)cc(OC)c1OC [No. 151, 8-Hydroxy-3-isobutyl-2-(3,4,5-trimethoxyphenyl)-3H-benzo[4,5]thieno[2,3-d]pyrimidin-4-one]
